The target in the assay is T1, human PF4 (Homo sapiens, UniProt P02776).
T1 construct: PF4 is a 70 amino acid, lysine-rich 7.8 kDa platelet-specific protein; made in house; host or cells: Escherichia coli BL21DE3 pLysS (pT7-7) and/or Drosophila S2 cells
T1 sequence (P02776 32-101): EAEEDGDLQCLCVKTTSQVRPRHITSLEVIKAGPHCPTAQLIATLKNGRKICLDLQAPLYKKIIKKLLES
The assay is described as follows: Inhibition of PF4 tetramer formation (BS3 cross-linking, SDS-PAGE). The assay is classed as biochemical. As to conditions: for inhibition at 5 µM: 5 μM inhibitor; for inhibition at 5 µM / inhibition at 10 µM: read-out: % inhibition of PF4 tetramer formation at single concentration of inhibitor; for inhibition at 10 µM: 10 μM inhibitor (column A); for pIC50: read-out: IC50 of PF4 tetramer formation inhibition. Summed up: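 Monomer, dimer, trimer and tetramer fractions were quantified by densitometry after reducing 12% SDS-PAGE of BS3-cross-linked (0.2 mM, 30 min, room temperature) PF4. Before cross-linking, 10 μg/ml E. coli-expressed human WT PF4 in PBS was exposed to compound for 15 min at 37° C or 60 min at room temperature; controls lacked compound.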

pIC50: −log10 of the molar value.

Consider `O=C(NC1CC1)C1C(=O)c2ccc(-c3ccc4c(c3)C(=O)C(C(=O)NC3CC3)C4=O)cc2C1=O` (stereo not drawn) [Example 110, (2Z,2′Z)-2,2′-bis[(cyclopropylamino)(hydroxyl)methylidene]-1H,1′H,2H,2′H,3H,3′H-[5,5′-biindene]-1,1′,3,3′-tetrone], for which the inhibition at 5 µM was found to be 84%, the inhibition at 10 µM is 87% and the pIC50 was roughly 5.40.

With `CC(C)(C)OC(=O)N1CCC[C@H]1C(=O)C1C(=O)c2ccc(C(=O)c3ccc4c(c3)C(=O)C(C(=O)[C@@H]3CCCN3C(=O)OC(C)(C)C)C4=O)cc2C1=O` (stereo partly drawn) [Example 111, tert-butyl (2S)-2-(5-{2-[(2S)-1-[(tert-butoxy)carbonyl]pyrrolidine-2-carbonyl]-1,3-dioxo-2,3-dihydro-1H-indene-5-carbonyl}-1,3-dioxo-2,3-dihydro-1H-indene-2-carbonyl)pyrrolidine-1-carboxylate], the inhibition at 5 µM amounted to 100%, the inhibition at 10 µM was 100% and the pIC50 is 6.30.

Turning to `CC(C)(C)OC(=O)N1C[C@H](F)C[C@H]1C(=O)C1C(=O)c2ccc(C(=O)c3ccc4c(c3)C(=O)C(C(=O)[C@@H]3C[C@@H](F)CN3C(=O)OC(C)(C)C)C4=O)cc2C1=O` (stereo partly drawn) [Example 113, tert-butyl (2S,4R)-2-(5-{2-[(2S,4R)-1-[(tert-butoxy)carbonyl]-4-fluoropyrrolidine-2-carbonyl]-1,3-dioxo-2,3-dihydro-1H-indene-5-carbonyl}-1,3-dioxo-2,3-dihydro-1H-indene-2-carbonyl)-4-fluoropyrrolidine-1-carboxylate], the inhibition at 5 µM is 68%, the inhibition at 10 µM was 86% and the pIC50 is 5.27.

On to `COC(=O)N1CCC[C@H]1C(=O)C1C(=O)c2ccc(C(=O)c3ccc4c(c3)C(=O)C(C(=O)[C@@H]3CCCN3C(=O)OC)C4=O)cc2C1=O` (stereo partly drawn) [Example 114, methyl (2S)-2-(5-{2-[(2S)-1-(methoxycarbonyl)pyrrolidine-2-carbonyl]-1,3-dioxo-2,3-dihydro-1H-indene-5-carbonyl}-1,3-dioxo-2,3-dihydro-1H-indene-2-carbonyl)pyrrolidine-1-carboxylate], for which the inhibition at 5 µM turned out to be 76%, the inhibition at 10 µM is 91% and the pIC50 was 5.60.

For `CC(C)(C)OC(=O)N1CC[C@H]1C(=O)C1C(=O)c2ccc(C(=O)c3ccc4c(c3)C(=O)C(C(=O)[C@@H]3CCN3C(=O)OC(C)(C)C)C4=O)cc2C1=O` (stereo partly drawn) [Example 115, tert-butyl (2S)-2-(5-{2-[(2S)-1-[(tert-butoxy)carbonyl]azetidine-2-carbonyl]-1,3-dioxo-2,3-dihydro-1H-indene-5-carbonyl}-1,3-dioxo-2,3-dihydro-1H-indene-2-carbonyl)azetidine-1-carboxylate], the pIC50 is 5.48.

As for `O=C(c1ccc2c(c1)C(=O)C(C(=O)[C@@H]1CCN1)C2=O)c1ccc2c(c1)C(=O)C(C(=O)[C@@H]1CCN1)C2=O` (stereo partly drawn) [Example 116, 2-[(2S)-azetidine-2-carbonyl]-5-{2-[(2S)-azetidine-2-carbonyl]-1,3-dioxo-2,3-dihydro-1H-indene-5-carbonyl}-2,3-dihydro-1H-indene-1,3-dione], the inhibition at 5 µM was 13% and the inhibition at 10 µM came out at 21%.

Turning to `N[C@H](C(=O)C1C(=O)c2ccc(C(=O)c3ccc4c(c3)C(=O)C(C(=O)[C@@H](N)C3CC3)C4=O)cc2C1=O)C1CC1` (stereo partly drawn) [Example 118, 2-[(2S)-2-amino-2-cyclopropylacetyl]-5-{2-[(2S)-2-amino-2-cyclopropylacetyl]-1,3-dioxo-2,3-dihydro-1H-indene-5-carbonyl}-2,3-dihydro-1H-indene-1,3-dione], the inhibition at 5 µM worked out at 75%, the inhibition at 10 µM worked out at 94% and the pIC50 was 5.47.

In the case of `CO[C@@H](C(=O)C1C(=O)c2ccc(C(=O)c3ccc4c(c3)C(=O)C(C(=O)[C@H](OC)c3ccccc3)C4=O)cc2C1=O)c1ccccc1` (stereo partly drawn) [Example 119, 2-[(2R)-2-methoxy-2-phenylacetyl]-5-{2-[(2R)-2-methoxy-2-phenylacetyl]-1,3-dioxo-2,3-dihydro-1H-indene-5-carbonyl}-2,3-dihydro-1H-indene-1,3-dione], the inhibition at 5 µM is 83%, the inhibition at 10 µM came to 90% and the pIC50 is 5.40.

Take `C[C@@H]1CC[C@@H](C(=O)C2C(=O)c3ccc(C(=O)c4ccc5c(c4)C(=O)C(C(=O)[C@@H]4CC[C@@H](C)N4C(=O)OC(C)(C)C)C5=O)cc3C2=O)N1C(=O)OC(C)(C)C` (stereo partly drawn) [Example 120B, tert-butyl (2S,5R)-2-(5-{2-[(2S,5R)-1-[(tert-butoxy)carbonyl]-5-methylpyrrolidine-2-carbonyl]-1,3-dioxo-2,3-dihydro-1H-indene-5-carbonyl}-1,3-dioxo-2,3-dihydro-1H-indene-2-carbonyl)-5-methylpyrrolidine-1-carboxylate]: the inhibition at 5 µM was determined as 75% and the inhibition at 10 µM turned out to be 86%.

`CC(C)(C)OC(=O)N1C[C@@H]2[C@H](C1)[C@H]2C(=O)C1C(=O)c2ccc(C(=O)c3ccc4c(c3)C(=O)C(C(=O)[C@H]3[C@@H]5CN(C(=O)OC(C)(C)C)C[C@@H]53)C4=O)cc2C1=O` (stereo partly drawn) [Example 121]: the inhibition at 5 µM was 82%, the inhibition at 10 µM is 80% and the pIC50 was 5.46.

In the case of `CC(C)(C)OC(=O)N1CC=C[C@H]1C(=O)C1C(=O)c2ccc(C(=O)c3ccc4c(c3)C(=O)C(C(=O)[C@@H]3C=CCN3C(=O)OC(C)(C)C)C4=O)cc2C1=O` (stereo partly drawn) [Example 122, tert-butyl (2S)-2-(5-{2-[(2S)-1-[(tert-butoxy)carbonyl]-2,5-dihydro-1H-pyrrole-2-carbonyl]-1,3-dioxo-2,3-dihydro-1H-indene-5-carbonyl}-1,3-dioxo-2,3-dihydro-1H-indene-2-carbonyl)-2,5-dihydro-1H-pyrrole-1-carboxylate], the pIC50 was roughly 5.52.

For `CC(C)(C)OC(=O)N1CC[C@@H](C(=O)C2C(=O)c3ccc(C(=O)c4ccc5c(c4)C(=O)C(C(=O)[C@@H]4CCN(C(=O)OC(C)(C)C)C4)C5=O)cc3C2=O)C1` (stereo partly drawn) [Example 123, tert-butyl (3R)-3-(5-{2-[(3R)-1-[(tert-butoxy)carbonyl]pyrrolidine-3-carbonyl]-1,3-dioxo-2,3-dihydro-1H-indene-5-carbonyl}-1,3-dioxo-2,3-dihydro-1H-indene-2-carbonyl)pyrrolidine-1-carboxylate], the inhibition at 5 µM was 88%, the inhibition at 10 µM stood at 89% and the pIC50 was 5.80.

As for `CC(C)(C)OC(=O)N1CCSC1C(=O)C1C(=O)c2ccc(C(=O)c3ccc4c(c3)C(=O)C(C(=O)C3SCCN3C(=O)OC(C)(C)C)C4=O)cc2C1=O` (stereo not drawn) [Example 124, tert-butyl 2-[5-(2-{3-[(tert-butoxy)carbonyl]-1,3-thiazolidine-2-carbonyl}-1,3-dioxo-2,3-dihydro-1H-indene-5-carbonyl)-1,3-dioxo-2,3-dihydro-1H-indene-2-carbonyl]-1,3-thiazolidine-3-carboxylate], the pIC50 is 5.20.

As to `O=C(c1ccc2c(c1)C(=O)C(C(=O)[C@@H]1CCCN1C(=O)OCc1ccccc1)C2=O)c1ccc2c(c1)C(=O)C(C(=O)[C@@H]1CCCN1C(=O)OCc1ccccc1)C2=O` (stereo partly drawn) [Example 125, benzyl (2S)-2-(5-{2-[(2S)-1-[(benzyloxy)carbonyl]pyrrolidine-2-carbonyl]-1,3-dioxo-2,3-dihydro-1H-indene-5-carbonyl}-1,3-dioxo-2,3-dihydro-1H-indene-2-carbonyl)pyrrolidine-1-carboxylate], the inhibition at 5 µM came out at 87%, the inhibition at 10 µM was found to be 93% and the pIC50 is 5.92.

`O=C(c1ccc2c(c1)C(=O)C(C(=O)Cn1cccn1)C2=O)c1ccc2c(c1)C(=O)C(C(=O)Cn1cccn1)C2=O` (stereo not drawn) [Example 126, 5-{1,3-dioxo-2-[2-(1H-pyrazol-1-yl)acetyl]-2,3-dihydro-1H-indene-5-carbonyl}-2-[2-(1H-pyrazol-1-yl)acetyl]-2,3-dihydro-1H-indene-1,3-dione]: the inhibition at 5 µM was 88%, the inhibition at 10 µM came out at 89% and the pIC50 is 5.51.

As to `CC(C)(C)OC(=O)N1CCCC[C@H]1C(=O)C1C(=O)c2ccc(C(=O)c3ccc4c(c3)C(=O)C(C(=O)[C@@H]3CCCCN3C(=O)OC(C)(C)C)C4=O)cc2C1=O` (stereo partly drawn) [Example 127, tert-butyl (2S)-2-(5-{2-[(2S)-1-[(tert-butoxy)carbonyl]piperidine-2-carbonyl]-1,3-dioxo-2,3-dihydro-1H-indene-5-carbonyl}-1,3-dioxo-2,3-dihydro-1H-indene-2-carbonyl)piperidine-1-carboxylate], the pIC50 is 6.00.

As for `CO[C@H](C)[C@H](N)C(=O)C1C(=O)c2ccc(C(=O)c3ccc4c(c3)C(=O)C(C(=O)[C@@H](N)[C@@H](C)OC)C4=O)cc2C1=O` (stereo partly drawn) [Example 128, 2-[(2S,3R)-2-amino-3-methoxybutanoyl]-5-{2-[(2S,3R)-2-amino-3-methoxybutanoyl]-1,3-dioxo-2,3-dihydro-1H-indene-5-carbonyl}-2,3-dihydro-1H-indene-1,3-dione], the inhibition at 5 µM amounted to 51%, the inhibition at 10 µM is 87% and the pIC50 was 5.11.

In the case of `CC(C)(C)OC(=O)N1CSC[C@H]1C(=O)C1C(=O)c2ccc(C(=O)c3ccc4c(c3)C(=O)C(C(=O)[C@@H]3CSCN3C(=O)OC(C)(C)C)C4=O)cc2C1=O` (stereo partly drawn) [Example 129, tert-butyl (4R)-4-(5-{2-[(4R)-3-[(tert-butoxy)carbonyl]-1,3-thiazolidine-4-carbonyl]-1,3-dioxo-2,3-dihydro-1H-indene-5-carbonyl}-1,3-dioxo-2,3-dihydro-1H-indene-2-carbonyl)-1,3-thiazolidine-3-carboxylate], the pIC50 is roughly 5.70.

The values are drawn from patent publication US20250281424A1 (New York Blood Center, Inc, priority 2020, published 2025).
